Data set [1] concerns Plasmodium berghei. Briefly: […] activity against GFP-fused Plasmodium berghei liver stage parasites infected in human HepG2-A16-CD81-EGFP cells after 48 hrs by luciferase reporter gene assay. It is filed as functional. For orientation: A reporter such as luciferase makes a cellular process visible.
For data set [2], the system named is Plasmodium berghei. As to the kind of experiment: Antiplasmodial activity against Plasmodium berghei infected in NMRI mouse assessed as reduction in parasitemia at 30 mg/kg, po administered at 4, 24, 48, 72 hrs post infection measured on day 4 by Peter's test relative to control. Set-up: scale not given: the % may be the effect or the level left. Type of data set: functional.

In data set [3] the test system is Plasmodium berghei. As to the kind of experiment: Antiplasmodial activity against Plasmodium berghei infected in NMRI mouse assessed as parasite-free mouse at 30 mg/kg, po administered at 4, 24, 48, 72 hrs post infection measured on day 30 by Peter's test. Type of data set: functional, organism-based.
Data set [4] has as its system Plasmodium berghei. Briefly: Antiplasmodial activity against Plasmodium berghei infected in NMRI mouse assessed as mean survival time at 30 mg/kg, po administered at 4, 24, 48, 72 hrs post infection by Peter's test (reference value: 6 to 7 day). Type of data set: functional.
The subject of data set [5] is Plasmodium berghei. Briefly: Antiplasmodial activity against Plasmodium berghei infected in NMRI mouse assessed as mean survival time at 50 mg/kg, po administered at 4, 24, 48, 72 hrs post infection by Peter's test (reference value: 6 to 7 day). Type of data set: functional.
For data set [6], the system named is Mus musculus. Briefly: Toxicity in NMRI mouse infected with Plasmodium berghei assessed as diarrhea at 50 mg/kg, ip administered at 4, 24, 48, 72 hrs post infection. It is filed as organism-based. To be noted: in vivo.
The subject of data set [7] is Mus musculus. As to the kind of experiment: Toxicity in NMRI mouse infected with Plasmodium berghei assessed as reduction in physical activity at 50 mg/kg, ip administered at 4, 24, 48, 72 hrs post infection. The note with it: in vivo. It is filed as organism-based.
A further data set concerns HepG2. As to the kind of experiment: Cytotoxicity against human HepG2 cells by CellTiterGlo assay. It is filed as cell-based. On the technique in general: In ATP-based viability assays light output follows the ATP content of the culture.
The subject of data set [8] is Plasmodium falciparum. As to the kind of experiment: Antiplasmodial activity against chloroquine-sensitive asexual blood stages of Plasmodium falciparum 3D7 after 72 hrs by HRP2-based ELISA. The note with it: 3D7, 72 h. It is filed as functional.
In data set [9] the test system is Plasmodium berghei. Briefly: Antiplasmodial activity against Plasmodium berghei infected in NMRI mouse assessed as parasite-free mouse at 50 mg/kg, ip administered at 4, 24, 48, 72 hrs post infection measured on day 30 by Peter's test. It is filed as functional, organism-based.
Data set [10] deals with Plasmodium berghei. As to the kind of experiment: Antiplasmodial activity against Plasmodium berghei infected in NMRI mouse assessed as parasite-free mouse at 50 mg/kg, po administered at 4, 24, 48, 72 hrs post infection measured on day 30 by Peter's test. It is filed as functional, organism-based.
Data set [11] can be described thus: Selectivity index, ratio of IC50 for human HepG2 cells to IC50 for chloroquine-sensitive asexual blood stages of Plasmodium falciparum 3D7. It is filed as toxicity. The note with it: read-out: Ratio IC50.
Data set [12] deals with Plasmodium berghei. As to the kind of experiment: Antiplasmodial activity against Plasmodium berghei infected in NMRI mouse assessed as mean survival time at 50 mg/kg, ip administered at 4, 24, 48, 72 hrs post infection by Peter's test (reference value: 6 to 7 day). It is filed as functional.
For data set [13], the system named is Plasmodium falciparum. As to the kind of experiment: Antiplasmodial activity against multidrug-resistant asexual blood stages of Plasmodium falciparum Dd2 after 72 hrs by HRP2-based ELISA. It is filed as functional. To be noted: Dd2, 72 h. A general note: ELISA stands for enzyme-linked immunosorbent assay.
Data set [14] concerns Plasmodium berghei. Briefly: Antiplasmodial activity against Plasmodium berghei infected in NMRI mouse assessed as reduction in parasitemia at 50 mg/kg, ip administered at 4, 24, 48, 72 hrs post infection measured on day 4 post infection by Peter's test relative to control. Set-up: scale not given: the % may be the effect or the level left. Type of data set: functional.
Data set [15] concerns Plasmodium berghei. Briefly: Antiplasmodial activity against Plasmodium berghei infected in NMRI mouse assessed as reduction in parasitemia at 50 mg/kg, po administered at 4, 24, 48, 72 hrs post infection measured on day 4 post infection by Peter's test relative to control. It is filed as functional. Set-up: scale not given: the % may be the effect or the level left.
In data set [16] the test system is Mus musculus. As to the kind of experiment: Toxicity in NMRI mouse infected with Plasmodium berghei assessed as overt toxicity at 50 mg/kg, ip administered at 4, 24, 48, 72 hrs post infection. To be noted: in vivo. Type of data set: organism-based.
In data set [17] the test system is Plasmodium falciparum. Briefly: Gametocytocidal activity against transgenic GFP-fused Plasmodium falciparum NF54 […] stage gametocytes after 72 hrs by Mitotracker Red CMH2XRos staining based confocal microscopic method. It is filed as functional. To be noted: NF54, 72 h.
Data set [18] concerns Plasmodium falciparum. As to the kind of experiment: Gametocytocidal activity against transgenic GFP-fused Plasmodium falciparum NF54 early stage gametocytes after 72 hrs by Mitotracker Red CMH2XRos staining based confocal microscopic method. Type of data set: functional. The note with it: NF54, 72 h.

Active and inactive are the calls of the source. No cut-off for these calls is given here.

A word on the IC50: it is the concentration needed to halve the response being measured. Turning to `O=C1C(O)=C([C@H]2CC[C@H](c3ccc(Cl)cc3)CC2)C(=O)c2ccccc21` [ATOVAQUONE], half-maximal inhibition in the data set on Plasmodium berghei [1] (IC50) required 0.26 nM.
As for `C[C@H]1[C@H](OC(=O)CCC(=O)O)O[C@@H]2O[C@@]3(C)CC[C@H]4[C@H](C)CC[C@@H]1[C@@]24OO3` [ARTESUNATE], the Activity in the data set with Plasmodium berghei [2] amounted to 99%. Also, the outcome in the data set on Plasmodium berghei [3] was inactive. The MST in the data set on Plasmodium berghei [4] stood at 10 days.
Turning to `O[C@@H](c1cc(C(F)(F)F)nc2c(C(F)(F)F)cccc12)[C@H]1CCCCN1` [(S,R)-MEFLOQUINE], in the data set on Plasmodium berghei [2], the Activity is recorded as 99.9%. Also, the MST with Plasmodium berghei [4] stood at 29 days.
On to `CCN(CC)CCCC(C)Nc1ccnc2cc(Cl)ccc12` (configuration not stated) [CHLOROQUINE], for which, in the data set on Plasmodium berghei [3], the result was inactive.
With `N/C(CC(O)c1cc2ccccc2c2ccccc12)=N\N=C\c1ccc(O)c(CN2CCCCC2)c1` (configuration not stated), the MST was found to be 10.3 days with Plasmodium berghei [5] and 16.7 days in the data set with Plasmodium berghei [12]. For the same molecule, the Activity result in the data set with Mus musculus [6] is given as “Non-Toxic”; with Mus musculus [7] it was “Non-Toxic”; with Plasmodium berghei [14], 98.7%; in the data set on Plasmodium berghei [15], 99%. The values for the IC50 in the data set on HepG2, with Plasmodium falciparum [8] and in the data set on Plasmodium falciparum [13] were 8400 nM, 2.9 nM and 5.4 nM, respectively. The result in the data set with Plasmodium berghei [9] and in the data set on Plasmodium berghei [10] was inactive. For the same molecule, the selectivity ratio in data set [11] amounted to 2900.
In the case of `CCN(CC)Cc1cc(/C=N/N=C(\N)CC(O)c2cc3c(Cl)cc(Cl)cc3c3cc(C(F)(F)F)ccc23)ccc1O` (configuration not stated), in the data set with Plasmodium berghei [5], the MST was 23 days. For the same molecule, the Activity entry is recorded as “Non-Toxic” in the data set on Mus musculus [16] and 99.8% in the data set with Plasmodium berghei [15]. Also, the IC50 was found to be 42800 nM with HepG2; 6.9 nM in the data set on Plasmodium falciparum [8]; 19100 nM in the data set on Plasmodium berghei [1]; 13.8 nM in the data set with Plasmodium falciparum [13]; 345 nM in the data set on Plasmodium falciparum [17]; 453 nM in the data set on Plasmodium falciparum [18]. In addition, the result in the data set on Plasmodium berghei [10] was inactive. Also, the selectivity ratio in [11] was determined as 6200.
In the case of `CN(C)Cc1cc(/C=N/N=C(\N)CC(O)c2cc3ccccc3c3ccccc23)ccc1O` (configuration not stated), the values for the MST with Plasmodium berghei [5] and in the data set on Plasmodium berghei [12] were 24.7 days and 22 days, respectively. Further, the Activity result is on record as “Non-Toxic” in the data set on Mus musculus [6], “Non-Toxic” in the data set with Mus musculus [7], 99.8% with Plasmodium berghei [14] and 99.8% in the data set with Plasmodium berghei [15]. Moreover, the IC50 in the data set with HepG2 was determined as 16700 nM; with Plasmodium falciparum [8], 2.5 nM; in the data set with Plasmodium falciparum [13], 0.97 nM. Moreover, the result in the data set with Plasmodium berghei [9] and in the data set with Plasmodium berghei [10] was inactive. For the same molecule, the selectivity ratio in [11] turned out to be 6680.

These data come from ChEMBL document CHEMBL4011644, “3-Hydroxy-N'-arylidenepropanehydrazonamides with Halo-Substituted Phenanthrene Scaffolds Cure P. berghei Infected Mice When Administered Perorally” (J Med Chem, 2017).
